Like-named read-outs stand apart in the source and are kept apart here.
Legend:
pepper (Capsicum annuum) = type: in vivo; details: pepper plants
[1] = tested on: cotton (Gossypium herbaceum); details: cotton plants
Description: (§1) • The laboratory colonies of Myzus persicae and Aphis gossypii were reared on pea and cotton plants under controlled conditions 25±1° C. and a 55±5% relative humidity. • Experiments were conducted at RT using pepper (Capsicum annuum) for Myzus persicae and cotton (Gossypium herbaceum) for Aphis gossypii.
• Soft water (Milli-Q water), self made hard water and very hard water collected from the field (sample A) were used in the assays. Self made hard water was prepared by adding magnesium sulfate to the tap water (440 mg MgSO4/1 L tap water) to achieve 25° d (˜445 ppm). […] The water softeners were used in concentrations described in Table 2. First, the softeners were added to Sample A, self made hard and soft water samples and the water hardness was determined with test strips (see Table 3). Next, Flipper (0,5%, corresponding to a fatty acid derivative content of 2.4 g/l) was mixed to the different water plus softener solutions and subsequently the samples were sprayed on plants infected with aphids. […]

Myzus persicae = assay: Aphid spray bioassay on infected pepper plants, insect mortality on day seven post treatment; type: in vivo; details: day 7
Description: as §1
(§2) • Soft water (Milli-Q water), self made hard water and very hard water collected from the field (sample A) were used in the assays. Self made hard water was prepared by adding magnesium sulfate to the tap water (440 mg MgSO4/1 L tap water) to achieve 25° d (˜445 ppm). […] The water softeners were used in concentrations described in Table 2. First, the softeners were added to Sample A, self made hard and soft water samples and the water hardness was determined with test strips (see Table 3). Next, Flipper (0,5%, corresponding to a fatty acid derivative content of 2.4 g/l) was mixed to the different water plus softener solutions and subsequently the samples were sprayed on plants infected with aphids. Additionally, another biological product based on fatty acid derivatives (product Neudosan® Neu available from Certis Europe B.V.) was tested in combination with the softener Slox and a softener based on TSCA(in the following named “Coded” (for concentrations see Table 2) in hard vs soft water against aphids as described above. The efficacy of Neudosan (0,5% and 1% corresponding to a fatty acid derivative content of 2.575 g/l and 5,15 g/1) was compared to the efficacy of Flipper (0,5% and 1% corresponding to a fatty acid derivative content of 2.4 g/l and 4,8 g/1) with and without softeners (see Table 5). • Four single-leaf pepper or cotton plants infected with mixed population of Myzus persicae or Aphis gossypii were used in the bioassays. The infected plants were sprayed with the prepared solutions by using an automatic spraying system machine with integrated residue drying and afterwards incubated in a greenhouse chamber under controlled conditions (25±1° C. and 55±5% RH).
(§3) The tests were conducted according to the protocol described in Example 1.

[2] = Measurement of water hardness before and after adding softeners (AQUADUR test strips); type: physicochemical
Description: as §2

Aphis gossypii = assay: Aphid spray bioassay on infected cotton plants, insect mortality on day seven post treatment; type: in vivo
Description: as §1, §2, §3

[3] = 0.5% Flipper + named softener in self made hard water
[4] = 0.5% Flipper + named softener in soft water
[5] = 0.5% Flipper + named softener (% printed in row) in self made hard water
[6] = 0.5% Flipper + named softener (% printed in row) in soft water
[7] = field collected water Sample A (>25 °D before), softener at % printed in row
[8] = field collected water Sample A (>445 ppm before), converted 1 °D = 17.8 ppm
[9] = self made hard water (25 °D before), softener at % printed in row
[10] = self made hard water (445 ppm before), converted 1 °D = 17.8 ppm
[11] = soft water (0 ppm before), converted 1 °D = 17.8 ppm
[12] = soft water (Milli-Q, 0 °D before), softener at % printed in row
[13] = 0.5% Flipper + named softener (% printed in row) in self made hard water, cotton, day 7

| SMILES | PTX (pepper (Capsicum annuum); [3]) | PTX (pepper (Capsicum annuum); [4]) | PTX [1, 3] | PTX [1, 4] | Efficacy of 0.5% Flipper against Myzus persicae, after adding softeners (Myzus persicae; [5]) [%] | Efficacy of 0.5% Flipper against Myzus persicae, after adding softeners (Myzus persicae; [6]) [%] | Water hardness after adding softener [2, 7] [°D] | Water hardness after adding softener [2, 8] [ppm] | Water hardness after adding softener [2, 9] [°D] | Water hardness after adding softener [2, 10] [ppm] | Water hardness after adding softener [2, 11] [ppm] | Water hardness after adding softener [2, 12] [°D] | Efficacy of 0.5% Flipper against Aphis gossypii, after adding softeners (Aphis gossypii; [13]) [%] | Efficacy of 0.5% Flipper against Aphis gossypii, after adding softeners (Aphis gossypii; in vivo) | Efficacy of 0.5% Flipper against Aphis gossypii, after adding softeners (Aphis gossypii; 0.5% Flipper + named softener (% printed in row) in soft water, cotton, day 7) [%] |
| --- | --- | --- | --- | --- | --- | --- | --- | --- | --- | --- | --- | --- | --- | --- | --- |
| O=C(O)CN(CCN(CC(=O)O)CC(=O)O)CC(=O)O [EDTA, Ethylene diamine tetraacetate] | strong | Strong | slight | 72.5 (slight | 81.25 | 97 | 0 | 0 | 0 | 0 | 0 | 0 | 65 | 72.5 (slight % | – |
| O=C([O-])CC(O)(CC(=O)[O-])C(=O)[O-].[Na+].[Na+].[Na+] [TSCA, Trisodium citric acid] | – | – | – | – | 55 | 67.5 | 20 | 356 | 20 | 356 | 0 | 0 | 55 | – | 70 |
